# Laboratory results from PubChem BioAssay AID330 (DTP/NCI, 2004).
# Where “and” joins values, the source holds several entries; their conditions need not be identical. Equal entries are not always repeated. Toxic doses and inconclusive results are not listed. Square brackets hold non-standard residues; d marks the D form. Peptide text beside a SMILES is read from it. * marks the point of attachment. ξ: configuration not given here. Ac5c = NC1(C(=O)O)CCCC1; Cbz = O=C(OCc1ccccc1)*; ξP = O=C(O)C1CCCN1
# Tested on: P388 leukemia ip, CD2F1 mice, survival T/C
# Experiment: NCI In Vivo Anticancer Drug Screen. Data for tumor model P388 Leukemia (intraperitoneal) in CD2F1 (CDF1) mice
# Conditions: endpoint: median survival time, higher = longer survival
# Procedure, shortened: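 Mice carrying the transplanted tumor received test compound or vehicle. Survival was recorded in each group, and the value is the treated-group measurement divided by that of the vehicle-treated control group.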
# [1] = dose: 50.0 mg/kg/injection, schedule: Q01DX005 (ip), vehicle: saline
# [2] = dose: 100.0 mg/kg/injection, schedule: Q01DX005 (ip), vehicle: saline
# [3] = dose: 200.0 mg/kg/injection, schedule: Q01DX005 (ip), vehicle: saline
# [4] = dose: 400.0 mg/kg/injection, schedule: Q04DX003 (ip), vehicle: saline with Tween-80
# [5] = dose: 50.0 mg/kg/injection, schedule: Q04DX002 (ip), vehicle: saline with Tween-80
# [6] = dose: 100.0 mg/kg/injection, schedule: Q04DX002 (ip), vehicle: saline with Tween-80
# [7] = dose: 50.0 mg/kg/injection, schedule: Q01DX005 (ip), vehicle: saline with Tween-80
# [8] = dose: 100.0 mg/kg/injection, schedule: Q01DX005 (ip), vehicle: saline with Tween-80
# [9] = dose: 200.0 mg/kg/injection, schedule: Q01DX005 (ip), vehicle: saline with Tween-80
# [10] = dose: 50.0 mg/kg/injection, schedule: Q01DX005 (ip), vehicle: Klucel (hydroxypropylcellulose) (HPC)
# [11] = dose: 100.0 mg/kg/injection, schedule: Q01DX005 (ip), vehicle: Klucel (hydroxypropylcellulose) (HPC)
# [12] = dose: 200.0 mg/kg/injection, schedule: Q01DX005 (ip), vehicle: Klucel (hydroxypropylcellulose) (HPC)
# [13] = dose: 50.0 mg/kg/injection, schedule: Q01DX009 (ip), vehicle: saline with Tween-80
# [14] = dose: 100.0 mg/kg/injection, schedule: Q01DX009 (ip), vehicle: saline with Tween-80
# [15] = dose: 200.0 mg/kg/injection, schedule: Q01DX009 (ip), vehicle: saline with Tween-80
# [16] = dose: 12.5 mg/kg/injection, schedule: Q01DX005 (ip), vehicle: Klucel (hydroxypropylcellulose) (HPC)
# [17] = dose: 25.0 mg/kg/injection, schedule: Q01DX005 (ip), vehicle: Klucel (hydroxypropylcellulose) (HPC)
# [18] = dose: 50.0 mg/kg/injection, schedule: Q01DX009 (ip), vehicle: saline
smiles,measurement,setting,value
COc1ccc2c3c1OC1CC(N4CCCC4)=C(c4c([N+](=O)[O-])cc([N+](=O)[O-])cc4[N+](=O)[O-])C4(O)C(C2)N(C)CCC314 (stereo not drawn),T/C,"dose: 60.0 mg/kg/injection, schedule: Q01DX005 (ip), vehicle: Klucel (hydroxypropylcellulose) (HPC)",94 % of control
same,T/C,"dose: 120.0 mg/kg/injection, schedule: Q01DX005 (ip), vehicle: Klucel (hydroxypropylcellulose) (HPC)",94 % of control
same,T/C,"dose: 240.0 mg/kg/injection, schedule: Q01DX005 (ip), vehicle: Klucel (hydroxypropylcellulose) (HPC)",90 % of control
NC1(C(=O)N2CCCC2C(=O)O)CCCC1 (stereo not drawn) (H-[Ac5c]-[ξP]-OH),T/C,[1],96 % of control
same,T/C,[2],89 % of control
same,T/C,[3],108 % of control
NCC(=O)Nc1ccc(O)cc1,T/C,"dose: 100.0 mg/kg/injection, schedule: Q01DX009 (ip), vehicle: saline sonified",104 % of control
same,T/C,"dose: 100.0 mg/kg/injection, schedule: Q04DX003 (ip), vehicle: saline sonified",110 % of control
same,T/C,"dose: 200.0 mg/kg/injection, schedule: Q04DX003 (ip), vehicle: saline sonified",110 % of control
same,T/C,"dose: 264.0 mg/kg/injection, schedule: Q04DX003 (ip), vehicle: saline with Tween-80",109 % of control
same,T/C,[4],109 % of control
same,T/C,"dose: 600.0 mg/kg/injection, schedule: Q04DX003 (ip), vehicle: saline with Tween-80",109 % of control
[NH-]C(CCC(N)=O)C(=O)O.[NH-]C(CCCCN)C(=O)O.[Zn+2] (stereo not drawn),T/C,"dose: 12.5 mg/kg/injection, schedule: Q01DX005 (ip), vehicle: saline",102 % of control
same,T/C,"dose: 25.0 mg/kg/injection, schedule: Q01DX005 (ip), vehicle: saline",105 % of control
same,T/C,[1],110 % of control
CN1CCN(C)C1=Nc1ccccc1/C=C/C=C1C(=O)N(C)C(=O)N(C)C1=O,T/C,"dose: 25.0 mg/kg/injection, schedule: Q04DX002 (ip), vehicle: saline with Tween-80",114 % of control
same,T/C,[5],106 % of control
same,T/C,[6],123 % of control
CC(=O)Nc1cc(S(=O)(=O)O)cc2c(N=Nc3ccc(C(=O)Nc4ccc(N=Nc5ccc(S(=O)(=O)O)cc5)cc4)cc3)c(S(=O)(=O)O)cc(O)c12,T/C,[7],93 % of control
same,T/C,[8],90 % of control
same,T/C,[9],101 % of control
NC1CN(C(COCc2ccccc2)c2ccc(OCc3ccccc3)cc2)C1=O (stereo not drawn),T/C,[7],100 % of control
same,T/C,[8],103 % of control
same,T/C,[9],97 % of control
Oc1ccccc1C1NCCc2[nH]cnc21 (stereo not drawn),T/C,[10],104 % of control
same,T/C,[11],102 % of control
same,T/C,[12],104 % of control
[O-]c1on[n+](-c2ccccc2-n2cccn2)c1-c1ccccc1,T/C,"dose: 100.0 mg/kg/injection, schedule: Q01DX001 (ip), vehicle: saline with Tween-80",90 % of control
same,T/C,"dose: 200.0 mg/kg/injection, schedule: Q01DX001 (ip), vehicle: saline with Tween-80",91 % of control
same,T/C,"dose: 400.0 mg/kg/injection, schedule: Q01DX001 (ip), vehicle: saline with Tween-80",90 % of control
O=C1C(N2CCOCC2)=C(N2CC2)C(=O)C(N2CCOCC2)=C1N1CC1,T/C,"dose: 0.25 mg/kg/injection, schedule: Q01DX009 (ip), vehicle: saline",119 % of control
same,T/C,"dose: 0.5 mg/kg/injection, schedule: Q01DX009 (ip), vehicle: saline",152 % of control
same,T/C,"dose: 0.66 mg/kg/injection, schedule: Q01DX009 (ip), vehicle: saline",153 % of control
same,T/C,"dose: 1.0 mg/kg/injection, schedule: Q01DX009 (ip), vehicle: saline",152 % of control and 161 % of control
same,T/C,"dose: 1.5 mg/kg/injection, schedule: Q01DX009 (ip), vehicle: saline",170 % of control
Clc1ncccc1SSc1cccnc1Cl,T/C,[13],104 % of control
same,T/C,[14],100 % of control
same,T/C,[15],104 % of control
CC(NC(=O)OCc1ccccc1)C(=O)NC(C(N)=O)C(C)C (stereo not drawn) (Cbz-Ala-Val-NH2; configuration not given here),T/C,[16],89 % of control
same,T/C,[17],100 % of control
same,T/C,[12],86 % of control
Oc1ccc2ccccc2c1CN(Cc1c(O)ccc2ccccc12)C1CCCCC1,T/C,[7],97 % of control
same,T/C,[8],96 % of control
same,T/C,[9],104 % of control
Cc1c2ccncc2c(C)c2c1sc1ccccc12,T/C,"dose: 12.5 mg/kg/injection, schedule: Q04DX003 (ip), vehicle: alkali diluted with water",121 % of control
same,T/C,"dose: 200.0 mg/kg/injection, schedule: Q04DX003 (ip), vehicle: alkali diluted with water",162 % of control
same,T/C,"dose: 200.0 mg/kg/injection, schedule: Q04DX003 (ip), vehicle: distilled water + Tween-80",155 % of control
same,T/C,"dose: 400.0 mg/kg/injection, schedule: Q04DX003 (ip), vehicle: distilled water + Tween-80",117 % of control
CCCCCC(Cn1ccnc1)c1ccc(Cl)cc1Cl (stereo not drawn),T/C,"dose: 100.0 mg/kg/injection, schedule: Q04DX003 (ip), vehicle: saline with Tween-80",99 % of control
same,T/C,"dose: 200.0 mg/kg/injection, schedule: Q04DX003 (ip), vehicle: saline with Tween-80",94 % of control
same,T/C,[4],89 % of control
CC(C(=O)O)S(=O)(=O)O (stereo not drawn),T/C,"dose: 20.0 mg/kg/injection, schedule: Q01DX009 (ip), vehicle: saline with Tween-80",100 % of control
same,T/C,"dose: 40.0 mg/kg/injection, schedule: Q01DX009 (ip), vehicle: saline with Tween-80",96 % of control
O=C(NC1CCCCC1)NS(=O)(=O)c1ccc(CCNC(=O)c2cccc3c2OCC3)cc1,T/C,[13],100 % of control
same,T/C,[14],99 % of control
same,T/C,[15],98 % of control
O=C(CCN1C(=O)NC(c2ccccc2)(c2ccccc2)C1=O)NCCN1CCOCC1,T/C,"dose: 60.0 mg/kg/injection, schedule: Q01DX005 (ip), vehicle: saline with Tween-80",96 % of control
same,T/C,"dose: 120.0 mg/kg/injection, schedule: Q01DX005 (ip), vehicle: saline with Tween-80",100 % of control
same,T/C,"dose: 240.0 mg/kg/injection, schedule: Q01DX005 (ip), vehicle: saline with Tween-80",102 % of control
COc1cc(C(CC#N)CC#N)cc(OC)c1OC,T/C,[7],96 % of control
same,T/C,[8],99 % of control
same,T/C,[9],97 % of control
Cc1c(Br)sc2c1ccc1ccccc12,T/C,[13],101 % of control
same,T/C,[14],100 % of control
same,T/C,[15],109 % of control
Cc1ncc2n1-c1ccc(Cl)cc1C(c1ccccc1F)=NC2,T/C,[18],103 % of control
same,T/C,"dose: 100.0 mg/kg/injection, schedule: Q01DX009 (ip), vehicle: saline",112 % of control
CN(N=C1C(N)=NN=C1N)c1ccccc1,T/C,[5],106 % of control
same,T/C,[6],93 % of control
same,T/C,"dose: 200.0 mg/kg/injection, schedule: Q04DX002 (ip), vehicle: saline with Tween-80",100 % of control
CCCCCCCOc1ccc(C(=O)O)cc1,T/C,"dose: 12.5 mg/kg/injection, schedule: Q01DX009 (ip), vehicle: Klucel (hydroxypropylcellulose) (HPC)",105 % of control
same,T/C,"dose: 25.0 mg/kg/injection, schedule: Q01DX009 (ip), vehicle: Klucel (hydroxypropylcellulose) (HPC)",111 % of control
same,T/C,"dose: 50.0 mg/kg/injection, schedule: Q01DX009 (ip), vehicle: Klucel (hydroxypropylcellulose) (HPC)",107 % of control
COc1ccc(C=C(C(=O)CCN(C)C)C(=O)CCN(C)C)cc1,T/C,[1],105 % of control
same,T/C,[2],100 % of control
Cc1nnc(N)c(C#N)c1C,T/C,[1],95 % of control
same,T/C,[2],104 % of control
same,T/C,[3],93 % of control
O=S(=O)(O)CCCOC1COc2ccccc2OCCOCCOc2ccccc2OC1,T/C,[1],99 % of control
same,T/C,[2],101 % of control
same,T/C,[3],98 % of control
CCOC(=O)c1cc(-c2ccccn2)c(=O)n2ccccc12,T/C,"dose: 12.5 mg/kg/injection, schedule: Q01DX009 (ip), vehicle: saline",108 % of control
same,T/C,"dose: 25.0 mg/kg/injection, schedule: Q01DX009 (ip), vehicle: saline",107 % of control
same,T/C,[13],100 % of control
same,T/C,[18],100 % of control
COc1ccc(N2C(=O)c3ccc4c5ccc6c7c(ccc(c8ccc(c3c48)C2=O)c75)C(=O)NC6=O)cc1,T/C,[16],89 % of control
same,T/C,[17],90 % of control
same,T/C,[10],90 % of control
same,T/C,[11],90 % of control
same,T/C,[12],89 % of control
CCCNC(=O)OCC1=C(COC(=O)NCCC)C2OC1C(C(=O)OC)=C2C(=O)OC,T/C,"dose: 12.5 mg/kg/injection, schedule: Q01DX009 (ip), vehicle: distilled water + Tween-80",89 % of control
same,T/C,"dose: 25.0 mg/kg/injection, schedule: Q01DX009 (ip), vehicle: distilled water + Tween-80",93 % of control
same,T/C,"dose: 50.0 mg/kg/injection, schedule: Q01DX009 (ip), vehicle: distilled water + Tween-80",86 % of control
